Reference: ChEMBL document CHEMBL4376811, “Naturally Occurring Lumazines” (J Nat Prod, 2019)
Values after ≈ are worked out from the molar mass of the structure shown.

Columns and labels:
Cathepsin B = Cathepsin B (Homo sapiens, UniProt P07858); test: Inhibition of cathepsin B (unknown origin) assessed as reduction in enzyme activity
[1] = biological target: Sodium/potassium-transporting ATPase; test: Inhibition of Na+/K+-ATPase in human placental syncytiotrophoblast-microvillous membranes/basal membranes using 3-O-methylfluorescein phosphate by fluorometric method
Sortase A = biological target: T1, Sortase A (Staphylococcus aureus, UniProt Q9S446); test: Inhibition of recombinant Staphylococcus aureus ATCC 6538p sortase A incubated for 1 hr in presence of (Dabcyl-QALPETGEE-Edans substrate by fluorescence spectrophotometry
T1 sequence (Q9S446 whole entry): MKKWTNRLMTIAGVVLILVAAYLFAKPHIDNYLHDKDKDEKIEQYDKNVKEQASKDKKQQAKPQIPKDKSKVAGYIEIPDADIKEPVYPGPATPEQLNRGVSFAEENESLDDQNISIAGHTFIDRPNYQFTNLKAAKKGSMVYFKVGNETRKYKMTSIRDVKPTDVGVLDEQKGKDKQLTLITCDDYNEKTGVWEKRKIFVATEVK

[2] = Inhibition of Magnaporthe grisea Guy 11 isocitrate lyase; parameters: species or system Pyricularia grisea
PC-12 = test: Anti-anoxic activity in rat PC12 cells reduction in assessed as sodium hydrosulfite-induced cell injury; type: functional, cell-based

Structure (SMILES)	IC50 [1]	IC50 (Sortase A)	IC50 [2]	EC50 (PC-12)	also measured
CN(CCc1cnc[nH]1)c1cnc2[nH]c(=O)[nH]c(=O)c2n1	–	–	–	–	IC50 (Cathepsin B): 4.87 µM
COC(=O)c1ccccc1NC(=O)[C@@H](NC(=O)c1cnc2c(n1)c(=O)[nH]c(=O)n2C)[C@@H](C)O	> 100 µM	> 100 µM	> 100 µM	–	–
CSc1c(C(=O)O)sc2nc3[nH]c(=O)[nH]c(=O)c3nc12	–	–	–	27 µg/mL (≈ 87 µM)	–
COCCOC(=O)C1=C(C)NC(C)=C(C(=O)OC(C)C)C1c1cccc([N+](=O)[O-])c1 (stereo not given) [NIMODIPINE]	–	–	–	1.29 µg/mL (≈ 3.08 µM)	–
CSc1c(C(=O)CO)sc2nc3[nH]c(=O)[nH]c(=O)c3nc12	–	–	–	19.5 µg/mL (≈ 60.2 µM)	–
COC(=O)c1ccccc1NC(=O)[C@H](CO)NC(=O)c1cnc2c(n1)c(=O)[nH]c(=O)n2C	> 100 µM	> 100 µM	> 100 µM	–	–
